As usually defined, the IC50 is the concentration that gives 50% inhibition.

The values that follow come from US8981106B2, “Pyrimidinecarboxamides as CXCR2 modulators” (Syntrix Biosystems, Inc., priority 2009, dated 2015).

CXCR2, sequence (P25025 whole entry): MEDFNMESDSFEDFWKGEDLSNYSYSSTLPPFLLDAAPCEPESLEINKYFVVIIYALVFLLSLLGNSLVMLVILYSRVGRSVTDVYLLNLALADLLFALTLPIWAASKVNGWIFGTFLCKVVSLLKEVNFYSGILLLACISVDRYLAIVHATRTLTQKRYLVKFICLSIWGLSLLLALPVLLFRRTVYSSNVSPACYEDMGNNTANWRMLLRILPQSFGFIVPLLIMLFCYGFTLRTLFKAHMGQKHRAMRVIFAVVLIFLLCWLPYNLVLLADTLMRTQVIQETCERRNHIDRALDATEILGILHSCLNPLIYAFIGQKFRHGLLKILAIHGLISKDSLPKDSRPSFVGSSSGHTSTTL

The target in the first experiment is CXCR2 (Homo sapiens (Human), UniProt P25025). Briefly: Inhibition of GROα-mediated intracellular calcium release in human neutrophils (FLIPR-3 Ca2+ mobilization). To be noted: human neutrophils, 25 nM GROα; read-out: IC50. The format is cell-based. As to the method: In Tables 1-5, the IC50 or EC50 values were determined using the following assay. This assay measures intracellular calcium release via fluorescence as an indication of CXCR2 receptor activation by the physiologic agonist GROα. The assay is a Ca^2+ mobilization assay that measures changes in intracellular Ca^2+ with a FlexStation II scanning fluorometer using a FLIPR-3 Calcium Assay Kit (Molecular Devices, Sunnyvale, Calif.). The procedure is as follows:
1. Human neutrophils were suspended in HBSS^− (without Ca^2+ and Mg^2+) containing 10 mM HEPES and FLIPR Calcium 3 dye (3.1×10^7 cells in total volume 1.7 mL).
2. […] As controls, 2 μL of DMSO (1% final concentration) were added to other 2 tubes.
3. Cells were incubated for 30 min at 37° C.
4. After dye loading, tubes were centrifuged at 6,000 rpm for 1 min, supernatant was removed and cell pellet was re-suspended in 200 μL of HBSS^+ (with Ca^2+ and Mg^2+) containing 10 mM HEPES.
5. The compound or DMSO (control) was added again at the same concentrations that were used during cell loading.
6. The cell suspension was aliquoted into a 96-well Reading Plate (Corning) in a volume of 90 μL (10^5 cells/well). The Compound Plate contained physiologic agonist (GROα in HBSS^−) or HBSS^− (control).
9. The maximum change in fluorescence, expressed in arbitrary units over baseline (Max-Min) was used to determine the GROα response. […] Therapeutic Activity
Briefly, human neutrophils were suspended in HBSS^− (without Ca^2+ and Mg^2+) containing 10 mM HEPES and FLIPR Calcium 3 dye (3.1×10^7 cells in total volume 1.7 mL). […] As controls, 2 μL of DMSO (1% final concentration) were added to 2 other tubes. Cells were incubated for 30 min at 37° C. After dye loading, tubes were centrifuged at 6,000 rpm for 1 min, supernatant was removed and the cell pellet was re-suspended in 200 μL of HBSS^+ (with Ca^2+ and Mg^2+) containing 10 mM HEPES. The test compound or DMSO (control) was added again at the same concentrations that were used during cell loading. The cell suspension was aliquoted into a 96-well Reading Plate (Corning) in a volume of 90 μL (10^5 cells/well). The Compound Plate contained agonist (GROα in HBSS^−) or HBSS^− (control).
The maximum change in fluorescence, expressed in arbitrary units over baseline (Max-Min), was used to determine the GROα response.
(Calcium assays in cells follow changes in intracellular calcium, usually with a dye or a luminescent sensor.)
`Cc1nc(-c2ccccc2)sc1CSc1ccc(C(=O)Nc2ccc(F)cc2)cn1` [Compound 70]: the IC50 is 1.21 ± 0.39 µM.
The same measure, in the same setting: next, `Cc1nc(-c2ccc(C(F)(F)F)cc2)sc1CSc1ccc(C(=O)Nc2ccc(F)cc2)cn1` [Compound 71]: greater than 10 µM.
For the molecule `O=C(Nc1ccc(F)cc1)c1ccc(SCCOc2ccccc2)nc1` [Compound 72], the IC50 was greater than 10 µM.
On to `O=C(Nc1ccc(F)cc1)c1ccc(SCc2ccc(C(F)(F)F)o2)nc1` [Compound 74], for which the IC50 is greater than 5 µM.
On the same count and under the same terms, with `O=C(Nc1ccc(F)cc1)c1ccc(SCc2ccc([N+](=O)[O-])o2)nc1` [Compound 75] the figure was greater than 5 µM.
Turning to `O=C(Nc1ccc(F)cc1)c1ccc(SCC2CCCO2)nc1` (stereo not drawn) [Compound 76], the half-inhibitory concentration (IC50) is 0.542 ± 0.104 µM.
For the molecule `O=C(Nc1ccc(F)cc1)c1ccc(SCC2CCOCC2)nc1` [Compound 77], the IC50 was greater than 10 µM.
On the same count and under the same terms, next, `O=C(Nc1ccc(F)cc1)c1ccc(SCC2CCCCO2)nc1` (stereo not drawn) [Compound 78]: greater than 5 µM.
The same measure, in the same setting: with `O=C(Nc1ccc(F)cc1)c1ccc(SCc2cc3ccccc3n2S(=O)(=O)c2ccccc2)nc1` [Compound 79] the figure was greater than 5 µM; with `CCOP(=O)(CSc1ccc(C(=O)Nc2ccc(F)cc2)cn1)OCC` [Compound 82], greater than 10 µM.
`O=C(Nc1ccc(F)cc1)c1ccc(SCS(=O)(=O)c2ccccc2)nc1` [Compound 83]: the IC50 is greater than 5 µM.
Still for that read-out and setting: next, `O=C(Nc1ccc(F)cc1)c1ccc(SC[N+](=O)[O-])nc1` [Compound 84]: greater than 10 µM; `Cc1ccc(C(=O)CSc2ccc(C(=O)Nc3ccc(F)cc3)cn2)cc1` [Compound 85]: greater than 10 µM; `O=C(CSc1ccc(C(=O)Nc2ccc(F)cc2)cn1)c1ccc(C(F)(F)F)cc1` [Compound 86]: greater than 10 µM.
With `Cc1ccc(C(=O)CSc2ccc(C(=O)Nc3ccc(F)cc3)cn2)c(C)c1` [Compound 87], the IC50 was greater than 5 µM.
On to `O=C(CSc1ccc(C(=O)Nc2ccc(F)cc2)cn1)c1ccc(Br)cc1` [Compound 88], for which the IC50 is greater than 10 µM.
Same read-out and setting: next, `O=C(CSc1ccc(C(=O)Nc2ccc(F)cc2)cn1)c1cccc(Br)c1` [Compound 89]: 0.852 ± 0.292 µM; `O=C(CSc1ccc(C(=O)Nc2ccc(F)cc2)cn1)c1cccc(Cl)c1` [Compound 90]: 0.21 ± 0.19 µM.
The same measure, in the same setting: next, `O=C(CSc1ccc(C(=O)Nc2ccc(F)cc2)cn1)c1cccc(F)c1` [Compound 91]: greater than 10 µM; `Cc1cc(C(=O)CSc2ccc(C(=O)Nc3ccc(F)cc3)cn2)ccc1Cl` [Compound 92]: greater than 5 µM.
`O=C(CSc1ccc(C(=O)Nc2ccc(F)cc2)cn1)c1ccc(Cl)c([N+](=O)[O-])c1` [Compound 94]: the IC50 was found to be 0.016 µM.
On the same count and under the same terms, with `O=C(CSc1ccc(C(=O)Nc2ccc(F)cc2)cn1)c1ccc(F)c(F)c1` [Compound 95] the figure was greater than 5 µM; with `CC(C)(C)c1cc(C(=O)CSc2ccc(C(=O)Nc3ccc(F)cc3)cn2)cc(C(C)(C)C)c1O` [Compound 96], greater than 10 µM; with `CCCCCc1ccc(C(=O)CSc2ccc(C(=O)Nc3ccc(F)cc3)cn2)cc1` [Compound 97], greater than 10 µM.
Turning to `O=C(CSc1ccc(C(=O)Nc2ccc(F)cc2)cn1)c1ccc(-c2cccs2)cc1` [Compound 98], the IC50 was greater than 10 µM.
On the same count and under the same terms, next, `O=C(CSc1ccc(C(=O)Nc2ccc(F)cc2)cn1)c1ccc(N2CCOCC2)cc1` [Compound 99]: greater than 5 µM; `COc1ccc(C(=O)CSc2ccc(C(=O)Nc3ccc(F)cc3)cn2)cc1` [Compound 100]: greater than 10 µM.
As to `N#Cc1ccc(C(=O)CSc2ccc(C(=O)Nc3ccc(F)cc3)cn2)cc1` [Compound 102], the IC50 was greater than 10 µM.
Turning to `N#Cc1cccc(C(=O)CSc2ccc(C(=O)Nc3ccc(F)cc3)cn2)c1` [Compound 103], the IC50 was greater than 5 µM.
On the same count and under the same terms, with `O=C(CSc1ccc(C(=O)Nc2ccc(F)cc2)cn1)c1ccc(-c2nn[nH]n2)cc1` [Compound 104] the figure was 1.15 ± 0.47 µM; with `CS(=O)(=O)c1ccc(C(=O)CSc2ccc(C(=O)Nc3ccc(F)cc3)cn2)cc1` [Compound 105], greater than 10 µM.
As to `O=C(CSc1ccc(C(=O)Nc2ccc(F)cc2)cn1)c1ccc(OC(F)(F)F)cc1` [Compound 106], the IC50 is greater than 10 µM.
The same measure, in the same setting: with `O=C(CSc1ccc(C(=O)Nc2ccc(F)cc2)cn1)c1ccc(OC(F)F)cc1` [Compound 107] the figure was greater than 10 µM.
The same measure, in the same setting: next, `O=C(Nc1ccc(F)cc1)c1ccc(SCC(=O)c2ccccc2C(F)(F)F)nc1` [Compound 108]: greater than 10 µM.
`O=C(CSc1ccc(C(=O)Nc2ccc(F)cc2)cn1)c1cccc(C(F)(F)F)c1` [Compound 109]: the IC50 was greater than 10 µM.
As for `O=C(CSc1ccc(C(=O)Nc2ccc(F)cc2)cn1)c1cc(C(F)(F)F)cc(C(F)(F)F)c1` [Compound 110], the IC50 was greater than 10 µM.
Turning to `CC1(C)CCC(C)(C)c2cc(C(=O)CSc3ccc(C(=O)Nc4ccc(F)cc4)cn3)ccc21` [Compound 111], the IC50 was greater than 5 µM.
The same measure, in the same setting: with `CCc1cc2c(cc1C(=O)CSc1ccc(C(=O)Nc3ccc(F)cc3)cn1)C(C)(C)CCC2(C)C` [Compound 112] the figure was 3.69 ± 0.72 µM; with `O=C(Nc1ccc(F)cc1)c1ccc(SCC(=O)c2ccccn2)nc1` [Compound 113], greater than 10 µM; with `O=C(CSc1ccc(C(=O)Nc2ccc(F)cc2)cn1)c1cccnc1` [Compound 114], greater than 5 µM.
As to `O=C(CSc1ccc(C(=O)Nc2ccc(F)cc2)cn1)c1ccncc1` [Compound 115], the IC50 is greater than 10 µM.
For the molecule `O=C(CSc1ccc(C(=O)Nc2ccc(F)cc2)cn1)c1ccc2occc2c1` [Compound 117], the IC50 was greater than 5 µM.
Still for that read-out and setting: next, `O=C(Nc1ccc(F)cc1)c1ccc(SCC(=O)c2coc3ccccc23)nc1` [Compound 118]: greater than 10 µM; `O=C(Nc1ccc(F)cc1)c1ccc(SCC(=O)c2cc3ccc(Br)cc3o2)nc1` [Compound 119]: 0.981 ± 0.29 µM.
For `O=C(Nc1ccc(F)cc1)c1ccc(SCC(=O)c2cc3ccccc3o2)nc1` [Compound 120], the IC50 was greater than 10 µM.
In the case of `O=C(CSc1ccc(C(=O)Nc2ccc(F)cc2)cn1)c1ccsc1` [Compound 121], the half-maximal inhibitory concentration (IC50) was greater than 10 µM.
Same read-out and setting: next, `O=C(Nc1ccc(F)cc1)c1ccc(SCC(=O)c2cccs2)nc1` [Compound 122]: greater than 5 µM.
For the molecule `O=C(Nc1ccc(F)cc1)c1ccc(SCC(=O)c2ccc(-c3ccccc3)s2)nc1` [Compound 123], the IC50 was greater than 10 µM.
`O=C(Nc1ccc(F)cc1)c1ccc(SCC(=O)c2ccc(-c3ccccn3)s2)nc1` [Compound 124]: the IC50 was greater than 10 µM.
For the molecule `O=C(CSc1ccc(C(=O)Nc2ccc(F)cc2)cn1)c1ccc2sccc2c1` [Compound 125], the IC50 is greater than 10 µM.
Consider `O=C(Nc1ccc(F)cc1)c1ccc(SCC(=O)c2csc3ccccc23)nc1` [Compound 126], for which the IC50 is greater than 5 µM.
Still for that read-out and setting: next, `O=C(Nc1ccc(F)cc1)c1ccc(SCC(=O)c2csc3ccc(Br)cc23)nc1` [Compound 127]: 1.25 ± 0.32 µM.
`O=C(Nc1ccc(F)cc1)c1ccc(SCC(=O)c2cc3ccccc3s2)nc1` [Compound 128]: the IC50 is 1.81 ± 0.52 µM.
Turning to `Cc1c(C(=O)CSc2ccc(C(=O)Nc3ccc(F)cc3)cn2)sc2ccccc12` [Compound 129], the IC50 was greater than 10 µM.
Regarding `Cc1ccc2sc(C(=O)CSc3ccc(C(=O)Nc4ccc(F)cc4)cn3)c(C)c2c1` [Compound 130], the 50% inhibitory concentration (IC50) was greater than 10 µM.
Consider `Cc1onc(-c2ccccc2)c1C(=O)CSc1ccc(C(=O)Nc2ccc(F)cc2)cn1` [Compound 131], for which the IC50 is greater than 5 µM.
The same measure, in the same setting: with `Cc1c(C(=O)CSc2ccc(C(=O)Nc3ccc(F)cc3)cn2)sc2ccc(Cl)cc12` [Compound 132] the figure was 0.78 ± 0.51 µM; with `O=C(Nc1ccc(F)cc1)c1ccc(SCC(=O)c2cc(-c3ccccc3)no2)nc1` [Compound 133], greater than 5 µM.
On the same count and under the same terms, with `O=C(Nc1ccc(F)cc1)c1ccc(SCC(=O)c2cc(-c3ccc(Cl)cc3)no2)nc1` [Compound 134] the figure was greater than 10 µM.
Still for that read-out and setting: next, `O=C(Nc1ccc(F)cc1)c1ccc(SCC(=O)c2cc(-c3ccc(Cl)c(Cl)c3)no2)nc1` [Compound 135]: greater than 10 µM.

The experiment is the same for the next values; noted with them: read-out: IC50.
`O=C(CSc1ccc(C(=O)Nc2ccc(F)cc2)cn1)c1ccc(Cl)c(Cl)c1` [Compound 93]: the IC50 turned out to be 1.85 ± 0.55 µM.
Take `O=C(CSc1ccc(C(=O)Nc2ccc(F)cc2)cn1)c1ccc([N+](=O)[O-])cc1` [Compound 101]: the IC50 was greater than 10 µM.
The same measure, in the same setting: next, `O=C(Nc1ccc(F)cc1)c1ccc(SCC(=O)c2ccco2)nc1` [Compound 116]: greater than 10 µM.
